Like-named read-outs stand apart in the source and are kept apart here.
Tests used:
Format in all cases: cell-based
[1] = test system: Staphylococcus aureus No. 6538; test: Serial dilution anti-bacterial test in BBL Trypticase Soy Broth; parameters: Test Culture and Results Staphyloccus aureus # 6538: key: -: Denotes no test; +: Denotes growth; 0: Denotes no growth; details: for MIC: Staphylococcus aureus, read-out: Minimum Inhibitory Centration
Description: (§1) The product compound of the Example 1 was tested for anti-bacterial and anti-fungal activity and compared to the known commercial broad spectrum bactericide/fungicide, according to the following procedure.
(§2) Samples of the compound were prepared for testing by making a stock solution in sterile distilled water containing 10,000 parts per million. Serial dilutions of each sample were prepared in appropriate culture media which were then innoculated with the test cultures and incubated. The tests employing bacteria were performed in BBL Trypticase Soy Broth incubated for 48 hours at 35° C. The tests employing A. niger were performed in Difco Sabouraud Dextrose Broth incubated for 5 days at 26° C.
(§3) The test cultures were Staphylococcus aureus No. 6538, Pseudomonas aeruginosa No. 9027 and Aspergillus niger No. 16404.

[2] = test system: Pseudomonas aeruginosa No. 9027; test: as above; details: for MIC: Pseudomonas aeruginosa, read-out: Minimum Inhibitory Centration; for Test Culture and Results Pseudomonas aeruginosa # 9027: key: -: Denotes no test; +: Denotes growth; 0: Denotes no growth
Description: as §1, §2, §3

[3] = test system: Aspergillus niger No. 16404; test: Serial dilution anti-fungal test in Difco Sabouraud Dextrose Broth; parameters: Test Culture and Results Aspergillis niger # 16404: key: -: Denotes no test; +: Denotes growth; 0: Denotes no growth; details: for MIC: Aspergillus niger, NO.16404, 120 h, read-out: Minimum Inhibitory Centration
Description: as §1, §2, §3

[4] = 100 parts per million, 48 hours at 35° C
[5] = 200 parts per million, 48 hours at 35° C
[6] = 300 parts per million, 48 hours at 35° C
[7] = 400 parts per million, 48 hours at 35° C
[8] = 500 parts per million, 48 hours at 35° C
[9] = 600 parts per million, 48 hours at 35° C
[10] = 700 parts per million, 48 hours at 35° C
[11] = 800 parts per million, 48 hours at 35° C
[12] = 900 parts per million, 48 hours at 35° C
[13] = 1000 parts per million, 48 hours at 35° C
[14] = 100 parts per million, 5 days at 26° C
[15] = 200 parts per million, 5 days at 26° C
[16] = 300 parts per million, 5 days at 26° C
[17] = 400 parts per million, 5 days at 26° C
[18] = 500 parts per million, 5 days at 26° C
[19] = 600 parts per million, 5 days at 26° C
[20] = 700 parts per million, 5 days at 26° C
[21] = 800 parts per million, 5 days at 26° C
[22] = 900 parts per million, 5 days at 26° C
[23] = 1000 parts per million, 5 days at 26° C

SMILES | Test Culture and Results Staphyloccus aureus # 6538 [1, 4] | Test Culture and Results Staphyloccus aureus # 6538 [1, 5] | Test Culture and Results Staphyloccus aureus # 6538 [1, 6] | Test Culture and Results Staphyloccus aureus # 6538 [1, 7] | Test Culture and Results Staphyloccus aureus # 6538 [1, 8] | Test Culture and Results Staphyloccus aureus # 6538 [1, 9] | Test Culture and Results Staphyloccus aureus # 6538 [1, 10] | Test Culture and Results Staphyloccus aureus # 6538 [1, 11] | Test Culture and Results Staphyloccus aureus # 6538 [1, 12] | Test Culture and Results Staphyloccus aureus # 6538 [1, 13] | Test Culture and Results Pseudomonas aeruginosa # 9027 [2, 4] | Test Culture and Results Pseudomonas aeruginosa # 9027 [2, 5] | Test Culture and Results Pseudomonas aeruginosa # 9027 [2, 6] | Test Culture and Results Pseudomonas aeruginosa # 9027 [2, 7] | Test Culture and Results Pseudomonas aeruginosa # 9027 [2, 8] | Test Culture and Results Pseudomonas aeruginosa # 9027 [2, 9] | Test Culture and Results Pseudomonas aeruginosa # 9027 [2, 10] | Test Culture and Results Pseudomonas aeruginosa # 9027 [2, 11] | Test Culture and Results Pseudomonas aeruginosa # 9027 [2, 12] | Test Culture and Results Pseudomonas aeruginosa # 9027 [2, 13] | other results
CCCCCCCCCCCC[N+](C)(C)CCCN1C(=O)NC(C)(C)C1=O [Example 1] | 0 | 0 | 0 | 0 | 0 | 0 | 0 | 0 | 0 | 0 | + | + | + | + | + | 0 | 0 | 0 | 0 | 0 | Test Culture and Results Staphyloccus aureus # 6538 ([1]; 1.56 parts per million, 48 hours at 35° C): +; Test Culture and Results Staphyloccus aureus # 6538 ([1]; 3.12 parts per million, 48 hours at 35° C): +; Test Culture and Results Staphyloccus aureus # 6538 ([1]; 6.25 parts per million, 48 hours at 35° C): +; Test Culture and Results Staphyloccus aureus # 6538 ([1]; 12.5 parts per million, 48 hours at 35° C): +; Test Culture and Results Staphyloccus aureus # 6538 ([1]; 25 parts per million, 48 hours at 35° C): 0; Test Culture and Results Staphyloccus aureus # 6538 ([1]; 50 parts per million, 48 hours at 35° C): 0; MIC ([1]; NO.6538, Staph. aureus # 6538, 48 hours at 35° C): 25 µg/mL; MIC ([2]; NO.9027, Pseudo. aerugin # 9027, 48 hours at 35° C): 600 µg/mL; Test Culture and Results Aspergillis niger # 16404 [3, 14]: +; Test Culture and Results Aspergillis niger # 16404 [3, 15]: +; Test Culture and Results Aspergillis niger # 16404 [3, 16]: 0; Test Culture and Results Aspergillis niger # 16404 [3, 17]: 0; Test Culture and Results Aspergillis niger # 16404 [3, 18]: 0; Test Culture and Results Aspergillis niger # 16404 [3, 19]: 0; Test Culture and Results Aspergillis niger # 16404 [3, 20]: 0; Test Culture and Results Aspergillis niger # 16404 [3, 21]: 0; Test Culture and Results Aspergillis niger # 16404 [3, 22]: 0; Test Culture and Results Aspergillis niger # 16404 [3, 23]: 0; MIC ([3]; Asperg. niger # 16404, 5 days at 26° C): 300 µg/mL
ClC=CC[N+]12CN3CN(CN(C3)C1)C2.[Cl-] [Dowicil 200, 1-(3-chloroallyl)-3,5,7-triaza-1-azonia adamantane chloride, reference compound] | + | 0 | 0 | 0 | 0 | 0 | 0 | 0 | 0 | 0 | + | + | + | + | + | + | + | + | 0 | 0 | MIC ([1]; NO.6538, 48 h): 200 µg/mL; MIC ([2]; NO.9027, 48 h): 900 µg/mL; Test Culture and Results Aspergillis niger # 16404 [3, 14]: +; Test Culture and Results Aspergillis niger # 16404 [3, 15]: +; Test Culture and Results Aspergillis niger # 16404 [3, 16]: +; Test Culture and Results Aspergillis niger # 16404 [3, 17]: +; Test Culture and Results Aspergillis niger # 16404 [3, 18]: +; Test Culture and Results Aspergillis niger # 16404 [3, 19]: +; Test Culture and Results Aspergillis niger # 16404 [3, 20]: +; Test Culture and Results Aspergillis niger # 16404 [3, 21]: 0; Test Culture and Results Aspergillis niger # 16404 [3, 22]: 0; Test Culture and Results Aspergillis niger # 16404 [3, 23]: 0; MIC [3]: 800 µg/mL
